Test results taken from patent publication US20220339143A1, “TAK-925 FOR USE IN TREATING NARCOLEPSY” (Takeda Pharmaceutical Company Limited, priority 2019, published 2022).
Read-outs that look alike come from different tables or passages of the source.

Test: Single dose PK in healthy subjects (Cohorts 1, 2, S1 and S2), plasma
Format: in vivo, human
Details: human, plasma, iv, healthy subjects
Experimental: This study investigates (i) the safety and tolerability of Compound A (methyl (2R,3S)-3-((methylsulfonyl)amino)-2-(((cis-4-phenylcyclohexyl)oxy)methyl)piperidine-1-carboxylate) when a single dose given as a 9 hour continuous IV infusion is administered to healthy adults, healthy elderly subjects and patients with narcolepsy type 1 (NT1); (ii) the pharmacokinetics of Compound A when a single dose given as a 9 hour continuous IV infusion is administered to healthy adults, healthy elderly subjects and patients with narcolepsy type 1; and (iii) the pharmacodynamics (PD) effects of Compound A, primarily by evaluation of the sleep latency on MWT when a single dose given as a 9 hour continuous IV infusion is administered to patients with narcolepsy type 1.
Pharmacokinetics: Concentrations of Compound A in plasma, and CSF, and pharmacokinetics parameters.
On average, the time to reach the plateau appeared to be approximately 3 to 4 hours after the start of infusion. […] After switching off the IV infusion, Compound A plasma concentrations declined rapidly and in a biphasic manner with a mean terminal disposition phase t1/2z ranging approximately from 3.4 to 5.1 hours across all doses. […] Table 5 provides a summary of plasma concentrations of Compound A after a single IV infusion in healthy subjects. Table 6 provides a summary of pharmacokinetic parameters of Compound A after a single IV infusion in healthy subjects.

COC(=O)N1CCC[C@H](NS(C)(=O)=O)[C@@H]1CO[C@H]1CC[C@@H](c2ccccc2)CC1 [Compound A, methyl (2R,3S)-3-((methylsulfonyl)amino)-2-(((cis-4-phenylcyclohexyl)oxy)methyl)piperidine-1-carboxylate]
AUC(0-inf) (14 mg, 14 mg single IV infusion, read-out: AUCinf Median): 322 ng·h/mL | AUC(0-t) (14 mg, 14 mg single IV infusion, read-out: AUClast Geo Mean): 323 ng·h/mL | AUC(0-t) (14 mg, 14 mg single IV infusion, read-out: AUClast Mean): 326 ng·h/mL | AUC(0-t) (14 mg, 14 mg single IV infusion, read-out: AUClast Median): 322 ng·h/mL | clearance (14 mg, 14 mg single IV infusion, read-out: CL Mean (converted)): 718 mL/min | clearance (14 mg, 14 mg single IV infusion, read-out: CL Median (converted)): 723 mL/min | concentration at 9 h (14 mg, 14 mg single IV infusion, read-out: Ceoi Geo Mean): 29.8 ng/mL | concentration at 9 h (14 mg, 14 mg single IV infusion, read-out: Ceoi Mean): 30.1 ng/mL | concentration at 9 h (14 mg, 14 mg single IV infusion, read-out: Ceoi Median): 30.8 ng/mL | Cmax (14 mg, 14 mg single IV infusion, read-out: Cmax Geo Mean): 36.8 ng/mL | Cmax (14 mg, 14 mg single IV infusion, read-out: Cmax Mean): 37 ng/mL | Cmax (14 mg, 14 mg single IV infusion, read-out: Cmax Median): 37 ng/mL | Vd (14 mg, 14 mg single IV infusion, read-out: Vss Mean): 77.1 L | Vd (14 mg, 14 mg single IV infusion, read-out: Vss Median): 72.7 L | Vd (14 mg, 14 mg single IV infusion, read-out: Vz Mean): 272 L | Vd (14 mg, 14 mg single IV infusion, read-out: Vz Median): 253 L | Tmax (14 mg, 14 mg single IV infusion, read-out: tmax Mean): 3.67 h | Tmax (14 mg, 14 mg single IV infusion, read-out: tmax Median): 4 h | AUC (28 mg, 28 mg single IV infusion, read-out: AUC24 Geo Mean): 513 ng·h/mL | AUC (28 mg, 28 mg single IV infusion, read-out: AUC24 Mean): 519 ng·h/mL | AUC (28 mg, 28 mg single IV infusion, read-out: AUC24 Median): 543 ng·h/mL | AUC(0-inf) (28 mg, 28 mg single IV infusion, read-out: AUCinf Geo Mean): 524 ng·h/mL | AUC(0-inf) (28 mg, 28 mg single IV infusion, read-out: AUCinf Mean): 530 ng·h/mL | AUC(0-inf) (28 mg, 28 mg single IV infusion, read-out: AUCinf Median): 549 ng·h/mL | AUC(0-t) (28 mg, 28 mg single IV infusion, read-out: AUClast Geo Mean): 513 ng·h/mL | AUC(0-t) (28 mg, 28 mg single IV infusion, read-out: AUClast Mean): 519 ng·h/mL | AUC(0-t) (28 mg, 28 mg single IV infusion, read-out: AUClast Median): 543 ng·h/mL | clearance (28 mg, 28 mg single IV infusion, read-out: CL Mean (converted)): 903 mL/min | clearance (28 mg, 28 mg single IV infusion, read-out: CL Median (converted)): 850 mL/min | concentration at 9 h (28 mg, 28 mg single IV infusion, read-out: Ceoi Geo Mean): 52.1 ng/mL | concentration at 9 h (28 mg, 28 mg single IV infusion, read-out: Ceoi Mean): 52.5 ng/mL | concentration at 9 h (28 mg, 28 mg single IV infusion, read-out: Ceoi Median): 55.3 ng/mL | Cmax (28 mg, 28 mg single IV infusion, read-out: Cmax Geo Mean): 57.6 ng/mL | Cmax (28 mg, 28 mg single IV infusion, read-out: Cmax Mean): 58.1 ng/mL | Cmax (28 mg, 28 mg single IV infusion, read-out: Cmax Median): 59.3 ng/mL | Vd (28 mg, 28 mg single IV infusion, read-out: Vss Mean): 116 L | Vd (28 mg, 28 mg single IV infusion, read-out: Vss Median): 105 L | Vd (28 mg, 28 mg single IV infusion, read-out: Vz Mean): 392 L | Vd (28 mg, 28 mg single IV infusion, read-out: Vz Median): 406 L | Tmax (28 mg, 28 mg single IV infusion, read-out: tmax Mean): 3 h | Tmax (28 mg, 28 mg single IV infusion, read-out: tmax Median): 3 h | AUC (56 mg, 56 mg single IV infusion, read-out: AUC24 Geo Mean): 1060 ng·h/mL | AUC (56 mg, 56 mg single IV infusion, read-out: AUC24 Mean): 1070 ng·h/mL | AUC (56 mg, 56 mg single IV infusion, read-out: AUC24 Median): 1040 ng·h/mL | AUC(0-inf) (56 mg, 56 mg single IV infusion, read-out: AUCinf Geo Mean): 1060 ng·h/mL | AUC(0-inf) (56 mg, 56 mg single IV infusion, read-out: AUCinf Mean): 1080 ng·h/mL | AUC(0-inf) (56 mg, 56 mg single IV infusion, read-out: AUCinf Median): 1050 ng·h/mL | AUC(0-t) (56 mg, 56 mg single IV infusion, read-out: AUClast Geo Mean): 1060 ng·h/mL | AUC(0-t) (56 mg, 56 mg single IV infusion, read-out: AUClast Mean): 1070 ng·h/mL | AUC(0-t) (56 mg, 56 mg single IV infusion, read-out: AUClast Median): 1040 ng·h/mL | clearance (56 mg, 56 mg single IV infusion, read-out: CL Mean (converted)): 885 mL/min | clearance (56 mg, 56 mg single IV infusion, read-out: CL Median (converted)): 891 mL/min | concentration at 9 h (56 mg, 56 mg single IV infusion, read-out: Ceoi Geo Mean): 115 ng/mL | concentration at 9 h (56 mg, 56 mg single IV infusion, read-out: Ceoi Mean): 115 ng/mL | concentration at 9 h (56 mg, 56 mg single IV infusion, read-out: Ceoi Median): 112 ng/mL | Cmax (56 mg, 56 mg single IV infusion, read-out: Cmax Geo Mean): 123 ng/mL | Cmax (56 mg, 56 mg single IV infusion, read-out: Cmax Mean): 123 ng/mL | Cmax (56 mg, 56 mg single IV infusion, read-out: Cmax Median): 122 ng/mL | Vd (56 mg, 56 mg single IV infusion, read-out: Vss Mean): 91.4 L | Vd (56 mg, 56 mg single IV infusion, read-out: Vss Median): 89.1 L | Vd (56 mg, 56 mg single IV infusion, read-out: Vz Mean): 291 L | Vd (56 mg, 56 mg single IV infusion, read-out: Vz Median): 282 L | Tmax (56 mg, 56 mg single IV infusion, read-out: tmax Mean): 4.5 h | Tmax (56 mg, 56 mg single IV infusion, read-out: tmax Median): 4 h | AUC (112 mg, 112 mg single IV infusion, read-out: AUC24 Geo Mean): 2070 ng·h/mL | AUC (112 mg, 112 mg single IV infusion, read-out: AUC24 Mean): 2090 ng·h/mL | AUC (112 mg, 112 mg single IV infusion, read-out: AUC24 Median): 2130 ng·h/mL | AUC(0-inf) (112 mg, 112 mg single IV infusion, read-out: AUCinf Geo Mean): 2090 ng·h/mL | AUC(0-inf) (112 mg, 112 mg single IV infusion, read-out: AUCinf Mean): 2110 ng·h/mL | AUC(0-inf) (112 mg, 112 mg single IV infusion, read-out: AUCinf Median): 2160 ng·h/mL | AUC(0-t) (112 mg, 112 mg single IV infusion, read-out: AUClast Geo Mean): 2070 ng·h/mL | AUC(0-t) (112 mg, 112 mg single IV infusion, read-out: AUClast Mean): 2090 ng·h/mL | AUC(0-t) (112 mg, 112 mg single IV infusion, read-out: AUClast Median): 2130 ng·h/mL | clearance (112 mg, 112 mg single IV infusion, read-out: CL Mean (converted)): 902 mL/min | clearance (112 mg, 112 mg single IV infusion, read-out: CL Median (converted)): 867 mL/min | concentration at 9 h (112 mg, 112 mg single IV infusion, read-out: Ceoi Geo Mean): 214 ng/mL | concentration at 9 h (112 mg, 112 mg single IV infusion, read-out: Ceoi Mean): 216 ng/mL | concentration at 9 h (112 mg, 112 mg single IV infusion, read-out: Ceoi Median): 221 ng/mL | Cmax (112 mg, 112 mg single IV infusion, read-out: Cmax Geo Mean): 235 ng/mL | Cmax (112 mg, 112 mg single IV infusion, read-out: Cmax Mean): 238 ng/mL | Cmax (112 mg, 112 mg single IV infusion, read-out: Cmax Median): 250 ng/mL | Vd (112 mg, 112 mg single IV infusion, read-out: Vss Mean): 97.8 L | Vd (112 mg, 112 mg single IV infusion, read-out: Vss Median): 104 L | Vd (112 mg, 112 mg single IV infusion, read-out: Vz Mean): 289 L | Vd (112 mg, 112 mg single IV infusion, read-out: Vz Median): 301 L | Tmax (112 mg, 112 mg single IV infusion, read-out: tmax Mean): 4.25 h | Tmax (112 mg, 112 mg single IV infusion, read-out: tmax Median): 4 h | AUC (134.4 mg, 134.4 mg single IV infusion, read-out: AUC24 Geo Mean): 2660 ng·h/mL | AUC (134.4 mg, 134.4 mg single IV infusion, read-out: AUC24 Mean): 2690 ng·h/mL | AUC (134.4 mg, 134.4 mg single IV infusion, read-out: AUC24 Median): 2670 ng·h/mL | AUC(0-inf) (134.4 mg, 134.4 mg single IV infusion, read-out: AUCinf Geo Mean): 2680 ng·h/mL | AUC(0-inf) (134.4 mg, 134.4 mg single IV infusion, read-out: AUCinf Mean): 2720 ng·h/mL | AUC(0-inf) (134.4 mg, 134.4 mg single IV infusion, read-out: AUCinf Median): 2680 ng·h/mL | AUC(0-t) (134.4 mg, 134.4 mg single IV infusion, read-out: AUClast Geo Mean): 2660 ng·h/mL | AUC(0-t) (134.4 mg, 134.4 mg single IV infusion, read-out: AUClast Mean): 2690 ng·h/mL | AUC(0-t) (134.4 mg, 134.4 mg single IV infusion, read-out: AUClast Median): 2670 ng·h/mL | clearance (134.4 mg, 134.4 mg single IV infusion, read-out: CL Mean (converted)): 848 mL/min | clearance (134.4 mg, 134.4 mg single IV infusion, read-out: CL Median (converted)): 839 mL/min | concentration at 9 h (134.4 mg, 134.4 mg single IV infusion, read-out: Ceoi Geo Mean): 290 ng/mL | concentration at 9 h (134.4 mg, 134.4 mg single IV infusion, read-out: Ceoi Mean): 292 ng/mL | concentration at 9 h (134.4 mg, 134.4 mg single IV infusion, read-out: Ceoi Median): 300 ng/mL
